ChEMBL document CHEMBL3352112, “Exploiting the therapeutic potential of 8-β-d-glucopyranosylgenistein: synthesis, antidiabetic activity, and molecular interaction with islet amyloid polypeptide and amyloid β-peptide (1-42)” (J Med Chem, 2014)
In brackets after ≈: the same amount, converted by molar mass.

Assay: Cytotoxicity against […] HII4E cells after 24 hrs by MTT cell viability assay
Format: cell-based

In the case of `O=C(N[C@H](CO)[C@H](O)c1ccc([N+](=O)[O-])cc1)C(Cl)Cl` [CHLORAMPHENICOL], the IC50 is reported as 143 µg/mL (≈ 443 µM).
